Experimental data from patent US12234247B2, “Heterocyclic compound and harmful arthropod-controlling composition containing same” (SUMITOMO CHEMICAL COMPANY, LIMITED, priority 2019, dated 2025).

Test system: cotton aphids (Aphis gossypil)
Assay: Test method 1: foliar spray on cucumber seedlings infested with cotton aphids
Format: in vivo
Conditions: 200 ppm, spray 10 mL/seedling, counted 5 days after spraying, 25° C.
Experimental: Next, Test Examples are used to show effects of the Present compounds on harmful arthropods. In the following Test Examples, the tests were carried out at 25° C. […] Cucumber (Cucumis sativus) seedlings (on the developmental stage of the second true leaf) are planted in a container and approximately 30 cotton aphids (Aphis gossypil) (all stages of life) are released onto the cucumber seedlings. After 1 day, each of said diluted solutions is sprayed into the seedlings in a ratio of 10 mL/seedling. After additional 5 days, the number of the surviving insects is examined and the controlling value is calculated by the following equation. Controlling value (%)={1-(Cb×Tai)/(Cai×Tb)}×100 wherein the symbols in the equation represent the following meanings. • Cb: Number of the test insects in non-treated area; • Cai: Number of the surviving insects at the time of the investigation in non-treated area; • Tb: Number of the test insects in treated area; • Tai: Number of the surviving insects at the time of the investigation in treated area; Here, the “non-treated area” represents an area where the same treatment procedure as that of the treated area is done except for not using each test compound.

## CCS(=O)(=O)c1c(-n2nc3ccc(C(F)(F)F)cn3c2=O)nc2ccc(C(F)(F)F)cn12 [compound 2]
  controlling value: ≥ 90%
